Measured values: article PMC12521730, “Quantitative dual-isotope preclinical SPECT/CT imaging and biodistribution of the mercury-197m/g theranostic pair with [^197m/gHg]HgCl2 and a [^197m/gHg]Hg-tetrathiol complex as a platform for radiopharmaceutical development” (EJNMMI Radiopharmacy and Chemistry, 2025)

Assay: Ex vivo biodistribution (gamma counter)
Type: in vivo, healthy male C57BL/6 mice
Settings: Hg-197g, 2 h post administration
Procedure: For animal injection, the tracer was prepared at high molar activity. Radiolabeling of H4Tetrathiol (10^–2 M in DMSO; 40 μL for imaging, 20 μL for bioD) (or DMSO, for [^197m/gHg]HgCl2 mice) with [^197m/gHg]HgCl2 (imaging: 26.7 MBq total m + g, 62 μL; bioD: 13.04 MBq total m + g, 31 μL) was performed in a mixture of ammonium acetate buffer (1 M; pH 7; 198 μL for imaging or 149 μL for bioD) and 6 M NaOH (72 μL or 38 μL required to achieve a pH of 7.5 after addition of activity, for imaging or BioD labeling, respectively). The reaction was allowed to stand for 1 h at 37 °C and quantitative (> 99%) non-isolated percentage radiochemical yield (%RCY) was confirmed via the iTLC methods mentioned above. Further, 100 µL of the reaction was diluted with 50 µL of PBS Tween-20 (0.01 M sodium phosphate, 0.15 M NaCl, 0.05% Tween-20) for imaging mice, or 50 µL of the reaction was diluted with 100 µL of PBS Tween-20 for BioD mice. The tracers were prepared immediately before injection to avoid radiolysis and minimize the tracer loss to any surfaces due to its lipophilicity. The injected doses of each isomer, ^197mHg and ^197gHg, were quantified by measuring an aliquot of known volume of each tracer preparation via HPGe gamma spectroscopy and decay corrected for time of injection using the Eqs. (1) and (2).
The study was conducted in compliance with the guidelines set by the Canadian Council on Animal Care (CCAC) and approved by the Animal Care Committee (ACC) at the University of British Columbia (A20-0132). A total of eight healthy male C57BL/6 mice weighing approximately 30 g for group 1 and 25 g for group 2 were used in the study. The mice were divided into two experimental groups: group 1 (n = 4) received free [^197m/gHg]HgCl2, while group 2 (n = 4) received [^197m/gHg]Hg-Tetrathiol. Within each group, one mouse was allocated for imaging, while the rest were designated for ex vivo biodistribution analysis. For SPECT imaging, the designated mice were anesthetized using isoflurane via a precision vaporizer. […] Once anesthetized, each imaging mouse received an intravenous (IV) injection via the lateral tail vein of 150 μL of [^197m/gHg]HgCl2 (0.492 MBq ^197mHg + 3.171 MBq ^197gHg) or [^197m/gHg]Hg-Tetrathiol (0.899 MBq ^197mHg + 4.230 MBq ^197gHg) in PBS Tween-20 (0.01 M Na Phosphate, 0.15 M NaCl, 0.05% Tween-20).
Mice received an IV injection of [^197m/gHg]HgCl2 (0.275 MBq ^197mHg + 1.758 MBq ^197gHg, 150 μL) or [^197m/gHg]Hg-Tetrathiol (0.384 MBq ^197mHg + 1.733 MBq ^197gHg, 150 μL) (n = 3 per group) via the lateral tail vein using a Tailveiner restrainer. After the injection, the mice were returned to their experimental cages and allowed unrestricted movement. Biodistribution studies were conducted 2 h after administration. Mice were humanely euthanized with an overdose of isoflurane followed by cardiac puncture to collect blood pool activity. The organs of interest were fully extracted, cleaned of blood without rinsing, weighed, and analysed for radioactivity using a calibrated gamma counter with the 55–93 keV energy window for ^197gHg and the 110–160 keV energy window for ^197mHg (Packard Cobra II, Perkin Elmer, Waltham, MA, USA). The stomach and intestines were carefully cleaned prior to analysis to remove residual contents. For tissues and fluids that could not be fully removed (muscle, blood and bone) activity values were extrapolated based on standardised organ weights for age- and sex-matched mice tables to ensure accurate normalization (Davies and Morris [1993]; Foster et al. [2014]). The stomach and whole intestines were cleaned before analysis. The radioactivity measurements were decay corrected for time of injection using the Eqs. (1) and (2). The results are reported as the percentage of the injected activity per gram of tissue (%IA/g) and percentage of the injected activity per tissue (%IA/organ).

## O=C(CC[S-])OCC(COC(=O)CC[S-])(COC(=O)CC[S-])COC(=O)CC[S-].[Hg+2] [[^197m/gHg]Hg-Tetrathiol]
  Animal 1 (%IA/Organ): bladder: 0.00 %IA/Organ
  Animal 1 (%IA/Organ): blood: 0.13 %IA/Organ
  Animal 1 (%IA/Organ): bone: 3.25 %IA/Organ
  Animal 1 (%IA/Organ): brain: 0.01 %IA/Organ
  Animal 1 (%IA/Organ): feces: 0.00 %IA/Organ
  Animal 1 (%IA/Organ): heart: 0.07 %IA/Organ
  Animal 1 (%IA/Organ): kidneys: 1.54 %IA/Organ
  Animal 1 (%IA/Organ): large intestine: 0.02 %IA/Organ
  Animal 1 (%IA/Organ): liver: 110.52 %IA/Organ
  Animal 1 (%IA/Organ): lungs: 0.95 %IA/Organ
  Animal 1 (%IA/Organ): muscle: 0.14 %IA/Organ
  Animal 1 (%IA/Organ): pancreas: 0.01 %IA/Organ
  Animal 1 (%IA/Organ): small intestine: 0.03 %IA/Organ
  Animal 1 (%IA/Organ): spleen: 3.22 %IA/Organ
  Animal 1 (%IA/Organ): stomach: 0.02 %IA/Organ
  Animal 1 (%IA/Organ): tail: 0.69 %IA/Organ
  Animal 1 (%IA/Organ): urine: 0.00 %IA/Organ
  Animal 1 (%IA/g) g: bladder: 0.05 %IA/g
  Animal 1 (%IA/g) g: blood: 0.09 %IA/g
  Animal 1 (%IA/g) g: bone: 1.72 %IA/g
  Animal 1 (%IA/g) g: brain: 0.03 %IA/g
  Animal 1 (%IA/g) g: feces: 0.04 %IA/g
  Animal 1 (%IA/g) g: heart: 0.55 %IA/g
  Animal 1 (%IA/g) g: kidneys: 4.07 %IA/g
  Animal 1 (%IA/g) g: large intestine: 0.12 %IA/g
  Animal 1 (%IA/g) g: liver: 85.85 %IA/g
  Animal 1 (%IA/g) g: lungs: 7.12 %IA/g
  Animal 1 (%IA/g) g: muscle: 0.01 %IA/g
  Animal 1 (%IA/g) g: pancreas: 0.06 %IA/g
  Animal 1 (%IA/g) g: small intestine: 0.14 %IA/g
  Animal 1 (%IA/g) g: spleen: 44.55 %IA/g
  Animal 1 (%IA/g) g: stomach: 0.16 %IA/g
  Animal 1 (%IA/g) g: tail: 1.37 %IA/g
  Animal 1 (%IA/g) g: urine: 0.03 %IA/g
  Animal 2 (%IA/Organ): bladder: 0.00 %IA/Organ
  Animal 2 (%IA/Organ): blood: 0.17 %IA/Organ
  Animal 2 (%IA/Organ): bone: 2.68 %IA/Organ
  Animal 2 (%IA/Organ): brain: 0.01 %IA/Organ
  Animal 2 (%IA/Organ): feces: 0.00 %IA/Organ
  Animal 2 (%IA/Organ): heart: 0.09 %IA/Organ
  Animal 2 (%IA/Organ): kidneys: 0.82 %IA/Organ
  Animal 2 (%IA/Organ): large intestine: 0.01 %IA/Organ
  Animal 2 (%IA/Organ): liver: 133.87 %IA/Organ
  Animal 2 (%IA/Organ): lungs: 0.87 %IA/Organ
  Animal 2 (%IA/Organ): muscle: 0.22 %IA/Organ
  Animal 2 (%IA/Organ): pancreas: 0.01 %IA/Organ
  Animal 2 (%IA/Organ): small intestine: 0.02 %IA/Organ
  Animal 2 (%IA/Organ): spleen: 4.01 %IA/Organ
  Animal 2 (%IA/Organ): stomach: 0.04 %IA/Organ
  Animal 2 (%IA/Organ): tail: 0.56 %IA/Organ
  Animal 2 (%IA/Organ): urine: 0.00 %IA/Organ
  Animal 2 (%IA/g) g: bladder: 0.04 %IA/g
  Animal 2 (%IA/g) g: blood: 0.11 %IA/g
  Animal 2 (%IA/g) g: bone: 1.37 %IA/g
  Animal 2 (%IA/g) g: brain: 0.02 %IA/g
  Animal 2 (%IA/g) g: feces: 0.05 %IA/g
  Animal 2 (%IA/g) g: heart: 0.74 %IA/g
  Animal 2 (%IA/g) g: kidneys: 2.02 %IA/g
  Animal 2 (%IA/g) g: large intestine: 0.05 %IA/g
  Animal 2 (%IA/g) g: liver: 103.98 %IA/g
  Animal 2 (%IA/g) g: lungs: 6.17 %IA/g
  Animal 2 (%IA/g) g: muscle: 0.02 %IA/g
  Animal 2 (%IA/g) g: pancreas: 0.04 %IA/g
  Animal 2 (%IA/g) g: small intestine: 0.07 %IA/g
  Animal 2 (%IA/g) g: spleen: 61.57 %IA/g
  Animal 2 (%IA/g) g: stomach: 0.32 %IA/g
  Animal 2 (%IA/g) g: tail: 1.15 %IA/g
  Animal 2 (%IA/g) g: urine: 0.03 %IA/g
  Animal 3 (%IA/Organ): bladder: 0.00 %IA/Organ
  Animal 3 (%IA/Organ): blood: 0.18 %IA/Organ
  Animal 3 (%IA/Organ): bone: 2.26 %IA/Organ
  Animal 3 (%IA/Organ): brain: 0.01 %IA/Organ
  Animal 3 (%IA/Organ): feces: 0.00 %IA/Organ
  Animal 3 (%IA/Organ): heart: 0.09 %IA/Organ
  Animal 3 (%IA/Organ): kidneys: 1.16 %IA/Organ
  Animal 3 (%IA/Organ): large intestine: 0.02 %IA/Organ
  Animal 3 (%IA/Organ): liver: 131.25 %IA/Organ
  Animal 3 (%IA/Organ): lungs: 1.12 %IA/Organ
  Animal 3 (%IA/Organ): muscle: 0.21 %IA/Organ
  Animal 3 (%IA/Organ): pancreas: 0.01 %IA/Organ
  Animal 3 (%IA/Organ): small intestine: 0.02 %IA/Organ
  Animal 3 (%IA/Organ): spleen: 4.84 %IA/Organ
  Animal 3 (%IA/Organ): stomach: 0.09 %IA/Organ
  Animal 3 (%IA/Organ): tail: 0.27 %IA/Organ
  Animal 3 (%IA/Organ): urine: 0.00 %IA/Organ
  Animal 3 (%IA/g) g: bladder: 0.03 %IA/g
  Animal 3 (%IA/g) g: blood: 0.13 %IA/g
  Animal 3 (%IA/g) g: bone: 1.20 %IA/g
  Animal 3 (%IA/g) g: brain: 0.03 %IA/g
  Animal 3 (%IA/g) g: feces: 0.00 %IA/g
  Animal 3 (%IA/g) g: heart: 0.82 %IA/g
  Animal 3 (%IA/g) g: kidneys: 3.17 %IA/g
  Animal 3 (%IA/g) g: large intestine: 0.10 %IA/g
  Animal 3 (%IA/g) g: liver: 159.50 %IA/g
  Animal 3 (%IA/g) g: lungs: 8.45 %IA/g
  Animal 3 (%IA/g) g: muscle: 0.02 %IA/g
  Animal 3 (%IA/g) g: pancreas: 0.08 %IA/g
  Animal 3 (%IA/g) g: small intestine: 0.09 %IA/g
  Animal 3 (%IA/g) g: spleen: 77.82 %IA/g
  Animal 3 (%IA/g) g: stomach: 0.89 %IA/g
  Animal 3 (%IA/g) g: tail: 0.56 %IA/g
  Animal 3 (%IA/g) g: urine: 0.03 %IA/g
  Animal 4 (%IA/Organ): bladder: 0.00 %IA/Organ
  Animal 4 (%IA/Organ): blood: 0.15 %IA/Organ
  Animal 4 (%IA/Organ): bone: 2.62 %IA/Organ
  Animal 4 (%IA/Organ): brain: 0.01 %IA/Organ
  Animal 4 (%IA/Organ): feces: 0.00 %IA/Organ
  Animal 4 (%IA/Organ): heart: 0.09 %IA/Organ
  Animal 4 (%IA/Organ): kidneys: 1.00 %IA/Organ
  Animal 4 (%IA/Organ): large intestine: 0.01 %IA/Organ
  Animal 4 (%IA/Organ): liver: 107.31 %IA/Organ
  Animal 4 (%IA/Organ): lungs: 0.93 %IA/Organ
  Animal 4 (%IA/Organ): muscle: 0.20 %IA/Organ
  Animal 4 (%IA/Organ): pancreas: 0.01 %IA/Organ
  Animal 4 (%IA/Organ): small intestine: 0.02 %IA/Organ
  Animal 4 (%IA/Organ): spleen: 4.62 %IA/Organ
  Animal 4 (%IA/Organ): stomach: 0.01 %IA/Organ
  Animal 4 (%IA/Organ): tail: 2.67 %IA/Organ
  Animal 4 (%IA/Organ): urine: 0.00 %IA/Organ
  Animal 4 (%IA/g) g: bladder: 0.07 %IA/g
  Animal 4 (%IA/g) g: blood: 0.10 %IA/g
  Animal 4 (%IA/g) g: bone: 1.40 %IA/g
  Animal 4 (%IA/g) g: brain: 0.02 %IA/g
  Animal 4 (%IA/g) g: feces: 0.01 %IA/g
